Data as given in patent US20100160351A1, “PHARMACEUTICAL COMPOSITIONS AND METHODS FOR TREATING HYPERURICEMIA AND RELATED DISORDERS” (NUON THERAPEUTICS, INC., priority 2008, published 2010).

Test system: serum uric acid (sUA) levels in hyperuricemic patients
Assay: PRESTO study: change in serum uric acid in hyperuricemic patients (baseline >=8 mg/dL), Tranilast twice daily for 1 or 3 months
Assay type: in vivo, human
Method: The PRESTO (Prevention of Restenosis with Tranilast and its Outcomes) study was a multicenter study of ˜11,500 patients undergoing percutaneous transluminal coronary revascularization (PTCR) with or without stenting for single or multiple vessels over a 9-month period. The study compared the composite clinical event rate of death, myocardial infarction, or need for ischemia-driven target vessel revascularization in patients treated with Tranilast (300 and 450 mg twice daily) for 1 or 3 months versus placebo. Description of the study protocol and patient population can be found in Holmes et al., The PRESTO (Prevention of Restenosis with Tranilast and its Outcomes) protocol: A double-blind, placebo-controlled trial, Am Heart J 2000; 139:23-31; and Holmes et al., Results of Prevention of REStenosis with Tranilast and its Outcomes (PRESTO) Trial, Circulation. 2002; 106:1243, both of which are incorporated by reference herein in their entirety.
Gout was a contraindication for patient enrollment in the PRESTO trial. Nevertheless, 1100 patients enrolled in the trial were identified with baseline hyperuricemia defined as initial serum uric acid (sUA) levels greater than or equal to 7 mg/dL. Of these, approximately 300 participants had baseline serum uric acid levels greater than or equal to 8 mg/dL. […] As indicated in FIG. 1 and Table 4, some patients were treated with placebo, some patients were treated with Tranilast for 4 weeks followed by placebo, and some patients were treated with Tranilast for 12 weeks.

[1] = 1M TRAN 300 mg/2M PLACEBO, Follow-Up
[2] = 1M TRAN 300 mg/2M PLACEBO, Post-PTCR
[3] = 1M TRAN 300 mg/2M PLACEBO, Week 1
[4] = 1M TRAN 300 mg/2M PLACEBO, Week 2
[5] = 1M TRAN 300 mg/2M PLACEBO, Week 3
[6] = 1M TRAN 300 mg/2M PLACEBO, Week 4
[7] = 1M TRAN 300 mg/2M PLACEBO, Week 6
[8] = 1M TRAN 300 mg/2M PLACEBO, Week 8
[9] = 1M TRAN 300 mg/2M PLACEBO, Week 10
[10] = 1M TRAN 300 mg/2M PLACEBO, Week 12
[11] = 1M TRAN 450 mg/2M PLACEBO, Follow-Up
[12] = 1M TRAN 450 mg/2M PLACEBO, Post-PTCR
[13] = 1M TRAN 450 mg/2M PLACEBO, Week 1
[14] = 1M TRAN 450 mg/2M PLACEBO, Week 2
[15] = 1M TRAN 450 mg/2M PLACEBO, Week 3
[16] = 1M TRAN 450 mg/2M PLACEBO, Week 4
[17] = 1M TRAN 450 mg/2M PLACEBO, Week 6
[18] = 1M TRAN 450 mg/2M PLACEBO, Week 8
[19] = 1M TRAN 450 mg/2M PLACEBO, Week 10
[20] = 1M TRAN 450 mg/2M PLACEBO, Week 12

## COc1ccc(/C=C/C(=O)Nc2ccccc2C(=O)O)cc1OC [Tranilast, 2-[[3-(3,4-dimethoxyphenyl)-1-oxo-2-propenyl]amino]benzoic acid]
[1]
  Change from Baseline in Uric Acid, Max: 2.00 mg/dL
  Change from Baseline in Uric Acid, Mean (SD): −0.64 (1.351) mg/dL
  Change from Baseline in Uric Acid, Median: -0.86 mg/dL
  Change from Baseline in Uric Acid, Min: -3.30 mg/dL
[2]
  Change from Baseline in Uric Acid, Max: 2.03 mg/dL
  Change from Baseline in Uric Acid, Mean (SD): −1.33 (1.220) mg/dL
  Change from Baseline in Uric Acid, Median: -1.30 mg/dL
  Change from Baseline in Uric Acid, Min: -4.54 mg/dL
[3]
  Change from Baseline in Uric Acid, Max: 2.70 mg/dL
  Change from Baseline in Uric Acid, Mean (SD): −2.31 (1.839) mg/dL
  Change from Baseline in Uric Acid, Median: -2.51 mg/dL
  Change from Baseline in Uric Acid, Min: -6.05 mg/dL
[4]
  Change from Baseline in Uric Acid, Max: 1.80 mg/dL
  Change from Baseline in Uric Acid, Mean (SD): −2.61 (2.149) mg/dL
  Change from Baseline in Uric Acid, Median: -3.00 mg/dL
  Change from Baseline in Uric Acid, Min: -7.05 mg/dL
[5]
  Change from Baseline in Uric Acid, Max: 3.50 mg/dL
  Change from Baseline in Uric Acid, Mean (SD): −2.43 (2.143) mg/dL
  Change from Baseline in Uric Acid, Median: -2.70 mg/dL
  Change from Baseline in Uric Acid, Min: -6.61 mg/dL
[6]
  Change from Baseline in Uric Acid, Max: 2.60 mg/dL
  Change from Baseline in Uric Acid, Mean (SD): −2.30 (1.953) mg/dL
  Change from Baseline in Uric Acid, Median: -2.40 mg/dL
  Change from Baseline in Uric Acid, Min: -7.40 mg/dL
[7]
  Change from Baseline in Uric Acid, Max: 2.40 mg/dL
  Change from Baseline in Uric Acid, Mean (SD): −0.82 (1.416) mg/dL
  Change from Baseline in Uric Acid, Median: -0.70 mg/dL
  Change from Baseline in Uric Acid, Min: -5.21 mg/dL
[8]
  Change from Baseline in Uric Acid, Max: 1.55 mg/dL
  Change from Baseline in Uric Acid, Mean (SD): −0.63 (1.371) mg/dL
  Change from Baseline in Uric Acid, Median: -0.70 mg/dL
  Change from Baseline in Uric Acid, Min: -4.54 mg/dL
[9]
  Change from Baseline in Uric Acid, Max: 2.10 mg/dL
  Change from Baseline in Uric Acid, Mean (SD): −0.79 (1.195) mg/dL
  Change from Baseline in Uric Acid, Median: -0.83 mg/dL
  Change from Baseline in Uric Acid, Min: -3.53 mg/dL
[10]
  Change from Baseline in Uric Acid, Max: 1.50 mg/dL
  Change from Baseline in Uric Acid, Mean (SD): −0.75 (1.500) mg/dL
  Change from Baseline in Uric Acid, Median: -0.52 mg/dL
  Change from Baseline in Uric Acid, Min: -4.90 mg/dL
[11]
  Change from Baseline in Uric Acid, Max: 1.20 mg/dL
  Change from Baseline in Uric Acid, Mean (SD): −0.53 (1.249) mg/dL
  Change from Baseline in Uric Acid, Median: -0.40 mg/dL
  Change from Baseline in Uric Acid, Min: -4.40 mg/dL
[12]
  Change from Baseline in Uric Acid, Max: 0.70 mg/dL
  Change from Baseline in Uric Acid, Mean (SD): −2.00 (1.454) mg/dL
  Change from Baseline in Uric Acid, Median: -1.96 mg/dL
  Change from Baseline in Uric Acid, Min: -5.21 mg/dL
[13]
  Change from Baseline in Uric Acid, Max: 2.00 mg/dL
  Change from Baseline in Uric Acid, Mean (SD): −3.66 (1.902) mg/dL
  Change from Baseline in Uric Acid, Median: -3.95 mg/dL
  Change from Baseline in Uric Acid, Min: -8.00 mg/dL
[14]
  Change from Baseline in Uric Acid, Max: 1.00 mg/dL
  Change from Baseline in Uric Acid, Mean (SD): −3.43 (2.176) mg/dL
  Change from Baseline in Uric Acid, Median: -3.50 mg/dL
  Change from Baseline in Uric Acid, Min: -8.40 mg/dL
[15]
  Change from Baseline in Uric Acid, Max: -0.70 mg/dL
  Change from Baseline in Uric Acid, Mean (SD): −4.19 (1.978) mg/dL
  Change from Baseline in Uric Acid, Median: -4.27 mg/dL
  Change from Baseline in Uric Acid, Min: -7.90 mg/dL
[16]
  Change from Baseline in Uric Acid, Max: 1.00 mg/dL
  Change from Baseline in Uric Acid, Mean (SD): −3.52 (2.127) mg/dL
  Change from Baseline in Uric Acid, Median: -4.03 mg/dL
  Change from Baseline in Uric Acid, Min: -7.65 mg/dL
[17]
  Change from Baseline in Uric Acid, Max: 2.50 mg/dL
  Change from Baseline in Uric Acid, Mean (SD): −0.29 (1.188) mg/dL
  Change from Baseline in Uric Acid, Median: -0.30 mg/dL
  Change from Baseline in Uric Acid, Min: -3.20 mg/dL
[18]
  Change from Baseline in Uric Acid, Max: 3.60 mg/dL
  Change from Baseline in Uric Acid, Mean (SD): −0.49 (2.142) mg/dL
  Change from Baseline in Uric Acid, Median: -0.10 mg/dL
  Change from Baseline in Uric Acid, Min: -9.70 mg/dL
[19]
  Change from Baseline in Uric Acid, Max: 4.60 mg/dL
  Change from Baseline in Uric Acid, Mean (SD): −0.46 (1.494) mg/dL
  Change from Baseline in Uric Acid, Median: -0.38 mg/dL
  Change from Baseline in Uric Acid, Min: -4.40 mg/dL
[20]
  Change from Baseline in Uric Acid, Max: 2.70 mg/dL
  Change from Baseline in Uric Acid, Mean (SD): −0.56 (1.298) mg/dL
  Change from Baseline in Uric Acid, Median: -0.34 mg/dL
  Change from Baseline in Uric Acid, Min: -3.50 mg/dL
